# “And” between values parts separate entries of the source, which are not always exact repeats. Equal entries are not always repeated.
# B1: PvcFRS αβ heterodimer as in the crystal (alpha subunit without residues 1-270) (complex, Plasmodium vivax)
# chain 1: LTYLLIKNEEYKKYQVKKYNFFSSGKKMNKGNIHLLIRQMRTFKDVFVSLGFEEMNTHNYVESSFWCFDALYIPQQHPSRDLQDTFFIKVPEMCQEEFTDQSYIENVKRVHSVGDYGSFGWNYQWELKSTKKNVLRTHTTANSCRALFQLAKEYQKTGSIIPKKFFSIDRVFRNENLDSTHLAEFHQVEGLIIDRNLGLSHLIGTLSAFYKYIGISKLRFKPTFNPYTEPSMEVYGYHEENKKWLEVGNSGIFRPEMLRAMGFPPEVSVIAWGLSLERPTMIKYSIRNIRDLFGYRSVI
# chain 2: MPTISVHEEDLIEKLGEKIEEEKLNDICFEFGIEIDDVEYKGEKKIYKIEVPANRYDLVCVEGLCRALKSFIGKYENVSYALLTNSEEACVKEKHFMRVDESVDERRSYVVSAVLKNVKMNENVYNNIIELQEKLHHNLGKKRILLAIGIHDYDKINFPVAYKFEEKEKINFIPLNETQNVNGNNFINFYQDNINLKSYLKIISDFEKFPVIVDAGGQILSLPPIINCDYTKITYDTRNLFIECTAIDRNKAEIAVNIICSMLSEYCTPKYSIHSFFVQYDKNHKAEKGNGYLYPVFKNKTLTCHMDYVRKLSGILNLSVKDVEPLLKKMMITSKVIDSSTFTVDVPFYRSDIMHFCDIVEDIAIAYGYGNIVSEKIEIAKKNSLSACTELFRNVLAECTYTEVMTNALLSKRENYDCMLRKHRSYDDRKINLDEYNPLAPPVQIMNSKTSEYEIVRTSLIVNMLKFVSANKHRELPLRFFEIGDVSYTTYDRTDTNAVNKRYLSVIFADKFTAGLEEAHGMLETVLKEFQLFSDYKIEEKSKENVAIRSDVFYKLVPKEDPSFLNERVVDIVLCPHNLKFGIMGIIHPKVLENFSIDIPVSVIEINIETIMDVLMM
# notes: PvcFRS alpha subunit, Plasmodium vivax, gene PVX_081300; N-terminal domain (residues 1-270) absent in the crystal; PvcFRS beta subunit, Plasmodium vivax, gene PVX_090880, full length; also called heterodimer (αβ); PvcFRS-BRD1389 complex; source: E. coli B834, both subunits co-expressed, purified (Ni-NTA, heparin); crystallised with BRD1389 and MgCl2
# B2: PvcFRS αβ heterodimer (full-length subunits) (complex, Plasmodium vivax)
# chain 1: MQAKAQEEQKGEELSQFLQALEEEFALCQEGGGDKREADGPSLENAEAEELANRRAYYLQLKEERNVLVEESKHVTSLHMSSKHNIEHAKVLGMAKKLETLYYVVNHVRSFNTYQLTEEGKEYLRDGSPEHVTLRYVMEQEGCTLEDLKKLFGKKGEIGLNINLKKKKIELRKSDKRLFPHVEGSAHSLVDETRCYLQKVEAHGNDEGALVSHLKGILPPEKGEKKEEDEANNLIKELKKRKLIEAKKISYIYIIRTNLFTKEIKKQITDLTYLLIKNEEYKKYQVKKYNFFSSGKKMNKGNIHLLIRQMRTFKDVFVSLGFEEMNTHNYVESSFWCFDALYIPQQHPSRDLQDTFFIKVPEMCQEEFTDQSYIENVKRVHSVGDYGSFGWNYQWELKSTKKNVLRTHTTANSCRALFQLAKEYQKTGSIIPKKFFSIDRVFRNENLDSTHLAEFHQVEGLIIDRNLGLSHLIGTLSAFYKYIGISKLRFKPTFNPYTEPSMEVYGYHEENKKWLEVGNSGIFRPEMLRAMGFPPEVSVIAWGLSLERPTMIKYSIRNIRDLFGYRSVI
# chain 2: MPTISVHEEDLIEKLGEKIEEEKLNDICFEFGIEIDDVEYKGEKKIYKIEVPANRYDLVCVEGLCRALKSFIGKYENVSYALLTNSEEACVKEKHFMRVDESVDERRSYVVSAVLKNVKMNENVYNNIIELQEKLHHNLGKKRILLAIGIHDYDKINFPVAYKFEEKEKINFIPLNETQNVNGNNFINFYQDNINLKSYLKIISDFEKFPVIVDAGGQILSLPPIINCDYTKITYDTRNLFIECTAIDRNKAEIAVNIICSMLSEYCTPKYSIHSFFVQYDKNHKAEKGNGYLYPVFKNKTLTCHMDYVRKLSGILNLSVKDVEPLLKKMMITSKVIDSSTFTVDVPFYRSDIMHFCDIVEDIAIAYGYGNIVSEKIEIAKKNSLSACTELFRNVLAECTYTEVMTNALLSKRENYDCMLRKHRSYDDRKINLDEYNPLAPPVQIMNSKTSEYEIVRTSLIVNMLKFVSANKHRELPLRFFEIGDVSYTTYDRTDTNAVNKRYLSVIFADKFTAGLEEAHGMLETVLKEFQLFSDYKIEEKSKENVAIRSDVFYKLVPKEDPSFLNERVVDIVLCPHNLKFGIMGIIHPKVLENFSIDIPVSVIEINIETIMDVLMM
# notes: PvcFRS alpha subunit, Plasmodium vivax, gene PVX_081300, full length; PvcFRS beta subunit, Plasmodium vivax, gene PVX_090880, full length; The heterodimer that pairs with itself to the (αβ)2 heterotetramer in solution; also called heterodimer (αβ); source: E. coli B834, both subunits co-expressed, purified (Ni-NTA, heparin)
# B3: PfcFRS wild type (WT) (Plasmodium falciparum 3D7) (protein)
# chain: MSTNNVEEKKNEELYNLLNILEEEFNLSKIENKNNNKNDDGDDDDVNKREDNNNNEYYKKLKDEKGLDVLINEYTTSLKISKKYNIDHNKVMGMIKKLETLYYIINLIKSFNTYHLSDEGKQYLKEGSPEFIVIKYVIQNNKCTLEDLKKNLGKIGDIGLNTNLKNRTIQLNKADKCLTCNCNLHDIQDFTQIYLDIINQYGHDEELLFAHLKNKNHTKNALNNNEMKNSCKDNNIINNLIQDLKKRKLLEIKKNSYSHVIKTSIFKKDIKKQITDINYLLLKNEEYKKYDIKKYNFFSSGKKINKGNIHLLTKQMRTFKEIFFSLGFEEMETHNYVESSFWCFDALYIPQQHPSRDLQDTFFIKEPETCIDKFVDTEYIDNIKRVHTHGDYGSFGWNYKWKLEESKKNVLRTHTTANSCRALFKLAKEYKEAGCIKPKKYFSIDRVFRNENLDSTHLAEFHQVEGLIIDKNIGLSHLIGTLAAFYKHIGIHKLKFKPTFNPYTEPSMEIYGYHEQSKKWLEVGNSGIFRPEMLRSMGFSEEVSVIAWGLSLERPTMIKYNIKNIRDLFGYKSVV
# What was measured:
# [1] = system: Plasmodium falciparum strain 3D7; assay: Parasite growth inhibition (drug susceptibility test, pLDH readout); format: cell-based; conditions: 3D7; for IC50: Plasmodium falciparum
# Experimental: (§1) The cultivation of P. falciparum was conducted according to Trager’s method with some modification. Precisely, parasites were kept in culture flasks with RPMI1640 medium supplemented with 10% human plasma and 2% fresh human erythrocytes and incubated at 37 °C with the gas condition of 5% CO2 and 5% O2. The parasitemia (percentage of infected erythrocytes to total erythrocytes) were kept within 0.25–10%. Culture medium was replaced, and fresh erythrocytes were supplied every 2–3 days. Drug susceptibility test was conducted according to Desjardins’s method[18] with some modification. […] […] The plates were kept at 37 °C with the gas condition of 5% CO2 and 5% O2 for 72 h and then parasite growth was quantified with Makler’s method to detect plasmdoial lactate dehydrogenase[19] with some modification. Precisely, culture plates were kept in freezer overnight and then thawed at 37 °C to disrupt the erythrocytes and parasite cells. In the new 96-well titer plates, 100 μl of enzyme reaction solution (110 mM Li-lactate, 0.5 mM acetylpyridine-adenine dinucleotide, 50 mM Tris (pH 7.5), 10 mM EDTA, 50 mM KCl, and 15 g l^−1 PEG6000) and 20 µl of freeze-thaw culture were mixed in each well and then kept at room temperature for 30 min. The detection solution was prepared by mixing equal volume of 2 mg ml^−1 nitro blue tetrazolium and 0.1 mg ml^−1 phenazine ethosulfate and 20 µl of the solution was added to each well.
# [2] = system: Plasmodium falciparum strain K1; assay: microbe, parasite or virus in culture; format: cell-based; conditions: K1; for IC50: Plasmodium falciparum
# Experimental: as §1
# PfcFRS mutant (L550V) = assay: Kinetic parameter (Km) determination, malachite green; format: biochemical, Plasmodium falciparum; conditions: PfcFRS-L550V versus PfcFRS WT
# Experimental: (§2) In both cases the reaction was carried out for 2 h at 37 °C. Data were fitted to Michaelis–Menten equations using Prism graph 6.0 software.
# N[C@@H](Cc1ccccc1)C(=O)O = assay: as above; format: biochemical, Plasmodium falciparum; conditions: other: PfcFRS mutant (L550V); ATP saturating 500 μM; pH 7.5; 37.0 °C
# Experimental: as §2
# parasite = system: parasite; parameters: method as in PMID 27602946; conditions: increasing concentrations of L-Phe; cited from earlier work
# [3] = biological target: the molecule itself; assay: crystal structure; PvcFRS with BRD1389 and Mg2+, space group P2(1)2(1)2, one αβ heterodimer per asymmetric unit, 3.0 Å
# [4] = biological target: the molecule itself; assay: SEC; purified PvcFRS on a Superdex 200 analytical gel filtration column
# [5] = substrate: N[C@@H](Cc1ccccc1)C(=O)O; assay: Kinetic parameter (Km) determination, malachite green; format: biochemical, Plasmodium falciparum; conditions: other: PfcFRS WT; ATP saturating 500 μM; pH 7.5; 37.0 °C
# Experimental: as §2
molecule,measurement,setting,value
"C[C@@H]1CC[C@H]2[C@@H](C)C(=O)O[C@@H]3O[C@@]4(C)CC[C@@H]1[C@]32OO4 [Artemisinin, artemisinin]",% Parasite Growth,[1]; 0.000195313 ug/mL,91.8%
same,% Parasite Growth,[1]; 0.000390625 ug/mL,88.1%
same,% Parasite Growth,[1]; 0.00078125 ug/mL,90.1%
same,% Parasite Growth,[1]; 0.0015625 ug/mL,91.8%
same,% Parasite Growth,[1]; 0.003125 ug/mL,91.0%
same,% Parasite Growth,[1]; 0.00625 ug/mL,92.6%
same,% Parasite Growth,[1]; 0.0125 ug/mL,61.0%
same,% Parasite Growth,[1]; 0.025 ug/mL,3.0%
same,% Parasite Growth,[1]; 0.05 ug/mL,2.5%
same,% Parasite Growth,[1]; 0.1 ug/mL,2.3%
same,% Parasite Growth,[1]; 0.2 ug/mL,2.8%
same,IC50,[1],0.0143 µg/mL and 50.5 nM
same,% Parasite Growth,[2]; 0.000195313 ug/mL,95.0%
same,% Parasite Growth,[2]; 0.000390625 ug/mL,92.3%
same,% Parasite Growth,[2]; 0.00078125 ug/mL,92.8%
same,% Parasite Growth,[2]; 0.0015625 ug/mL,94.4%
same,% Parasite Growth,[2]; 0.003125 ug/mL,92.0%
same,% Parasite Growth,[2]; 0.00625 ug/mL,76.5%
same,% Parasite Growth,[2]; 0.0125 ug/mL,6.1%
same,% Parasite Growth,[2]; 0.025 ug/mL,2.9%
same,% Parasite Growth,[2]; 0.05 ug/mL,3.5%
same,% Parasite Growth,[2]; 0.1 ug/mL,3.3%
same,% Parasite Growth,[2]; 0.2 ug/mL,3.6%
same,IC50,[2],0.00811 µg/mL and 28.7 nM
"CCN(CC)CCCC(C)Nc1ccnc2cc(Cl)ccc12 (centres unmarked) [Chloroquine, chloroquine]",IC50,[1],0.00914 µg/mL and 17.7 nM
same,IC50,[2],0.139 µg/mL and 269 nM
"N[C@@H](Cc1ccccc1)C(=O)O [L-Phe, L-phenylalanine]","increase in Km value for L-Phe, mutant vs WT",PfcFRS mutant (L550V),10 fold and ~ 10 fold
PfcFRS mutant (L550V) (Plasmodium falciparum 3D7; L550V),Km,N[C@@H](Cc1ccccc1)C(=O)O,1.85 ± 0.84 µM
COc1ccc(NC(=O)N2CCCCN3[C@H](CN)[C@H](c4ccc(C#Cc5ccccc5)cc4)[C@@H]3C2)cc1 [BRD1095],EC50 shift with L-Phe,parasite,higher EC50 values with increasing concentrations of L-Phe
B1,binding result,[3],binds
B2,stoichiometry N,[4],2
B3,Km,[5],0.25 ± 0.017 µM

# Source: publication PMC7803973, “Structural basis of malaria parasite phenylalanine tRNA-synthetase inhibition by bicyclic azetidines” (Nature Communications, 2021)
